Here are results for 9 compounds from patent publication US20250091994A1, “RAS/RAF BINDING INHIBITOR COMPOUND” (NATIONAL UNIVERSITY CORPORATION KOBE UNIVERSITY, priority 2021, published 2025).

Assay [1] deals with acute lymphoblastic leukemia cells MOLT4 (N-RasG12C). As to the kind of experiment: Cell growth inhibition, suspension cells MOLT4. It counts as cell-based. The conditions noted are these: Homo sapiens, MOLT-4, 72 hours; for inhibition at 3.2 µM: read-out: MOLT-4 (NRasG12C) % inhibition at 3.2 μM (***). As to the method:
(§1) The cell growth inhibitory activity of the compound of the present invention on human culture cells having active-type mutation in Ras was evaluated by the below-mentioned method using suspension cancer cells {acute lymphoblastic leukemia cells CCRF-CEM (K-RasG12D), promyelocytic leukemia cells HL60 (N-RasQ61L), acute lymphoblastic leukemia cells MOLT4 (N-RasG12C), and small cell lung cancer cells SHP77 (K-RasG12V)} and adherent cancer cells {large bowel cancer cells SW480 (K-RasG12V) and large bowel cancer cell SW620 (K-RasG12V)}.
(§2) (Case of suspension cells) The cells suspended in a medium containing 0.5% (v/v) fetal bovine serum (FBS) and each compound solution (final DMSO concentration: 1%) were seeded on a 96-well plate (2 to 4×10^4 cells/well), and the resulting mixture was then cultured at 37° C. in the presence of 5% CO2 for 72 hours.
(§3) Thereafter, the number of viable cells was measured using Cell Counting Reagent (Nacalai Tesque) in accordance with the manufacturer's instructions. Inhibition by the test compound was determined according to the following equation: […]

Assay [2] relates to promyelocytic leukemia cells HL60 (N-RasQ61L). The assay can be described thus: Cell growth inhibition, suspension cells HL60. Format: cell-based. The settings on record: Homo sapiens, HL-60, 72 hours; for inhibition at 1 µM: read-out: HL-60 (NRasQ61L) % inhibition at 1 μM; for inhibition at 10 µM: read-out: HL-60 (NRasQ61L) % inhibition at 10 μM (***); for inhibition at 3.2 µM: read-out: HL-60 (NRasQ61L) % inhibition at 3.2 μM (****). The procedure, abridged: (§4)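 Suspension cells, 2 to 4×10^4 per well, cultured with compound in medium with 0.5% FBS (1% DMSO final) for 72 h at 37° C, 5% CO2. Viable cells counted with Cell Counting Reagent; inhibition calculated relative to controls.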

For assay [3], the system named is acute lymphoblastic leukemia cells CCRF-CEM (K-RasG12D). The assay can be described thus: Cell growth inhibition, suspension cells CCRF-CEM. It counts as cell-based. The conditions noted are these: Homo sapiens, 72 hours; for inhibition at 1 µM: read-out: CCRF-CEM (KRasG12D) % inhibition at 1 μM; for inhibition at 3.2 µM: read-out: CCRF-CEM (KRasG12D) % inhibition at 3.2 μM (***). Summed up:
as §4

Assay [4] deals with phosphorylated MEK (pMEK) in HL60 cells. As to the kind of experiment: Ras-Raf signaling inhibition at culture cell level, pMEK. Format: cell-based. The settings on record: Homo sapiens, HL-60; HL60 (N-RasQ61L), 1 μM test compound, 3 hours. The procedure: (§5) The Ras-Raf signaling inhibitory activity of the compound of the present invention at a culture cell level was evaluated by the following method.
(§6) The HL60 cells described in Test Example 2 suspended in a medium containing 0.5% (v/v) FBS with each compound solution (final DMSO concentration: 1%), were seeded on a 12-well plate (2 to 4×10^5 cells/well), and the resulting mixture was then cultured at 37° C. in the presence of 5% CO2 for 3 hours.
(§7) After completion of the cell culture, proteins were extracted from the cells, using RIPA Buffer (Nacalai Tesque) containing a mixture of protease inhibitors and phosphatase inhibitors. An equivalent amount of protein was separated by standard SDS-PAGE and was then transferred onto a PVDF membrane. In order to detect the activation (phosphorylation) of MEK and ERK, downstream molecules of the Ras-Raf signaling pathway, the membrane was probed with 1000-fold diluted primary antibodies {phosphorylated MEK (pMEK: #9121), phosphorylated ERK (pERK: #9101), total MEK (tMEK: #9122), and total ERK (tERK: 9102); all from Cell signaling}, and then with a 1000-fold diluted horseradish peroxidase-labeled secondary antibody against rabbit immunoglobulin G. The immunoreactive signals were colored with EzWestLumi One (ATTO), and were then detected by Fusion FX (Vilber). Signal intensity was quantified by pixel counting. Inhibition by the test compound was determined according to the following equation: […]

Assay [5] deals with phosphorylated ERK (pERK) in HL60 cells. As to the kind of experiment: Ras-Raf signaling inhibition at culture cell level, pERK. The conditions noted are these: Homo sapiens, HL-60; HL60 (N-RasQ61L), 1 μM test compound, 3 hours. Format: cell-based. The procedure: as §5, §6, §7
Assay [6] deals with small cell lung cancer cells SHP77 (K-RasG12V). As to the kind of experiment: Cell growth inhibition, suspension cells SHP77. It counts as cell-based. The conditions noted are these: Homo sapiens, 3.3 μM (*), 72 hours, read-out: SHP77 (KRasG12V) % inhibition at 3.3 μM (*). The procedure:
as §1, §2, §3

Assay [7] deals with large bowel cancer cells SW480 (K-RasG12V). The assay can be described thus: Cell growth inhibition, adherent cells SW480. It counts as cell-based. The conditions noted are these: Homo sapiens, 72 hours, read-out: SW480 (KRasG12V) % inhibition at 10 μM. The procedure:
as §1
(Case of adherent cells) The cells suspended in a medium containing 10% FBS (1 to 2×10^4 cells/well) were seeded on a 96-well plate, and were then cultured at 37° C. in the presence of […]. Thereafter, the medium was exchanged with a medium containing […], to which each compound solution (final DMSO concentration: […]) had been added, and the cells were then cultured at 37° C. in the presence of […] for 72 hours.
as §3

For assay [8], the system named is large bowel cancer cell SW620 (K-RasG12V). The assay can be described thus: Cell growth inhibition, adherent cells SW620. It counts as cell-based. The conditions noted are these: Homo sapiens, SW-620, 72 hours; for inhibition at 3.2 µM: read-out: SW620 (KRasG12V) % inhibition at 3.2 μM (***). Summed up:
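Adherent cells, 1 to 2×10^4 per well, grown overnight in 10% FBS, then exposed to compound in low-serum medium […] for 72 h at 37° C. Viable cells counted with Cell Counting Reagent; inhibition calculated relative to controls.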

The target of assay [9] is GTPγS-bound human HRasG12V / human c-Raf-1 Ras binding domain (RBD) (Homo sapiens (Human), UniProt P01112, G12V). As to the kind of experiment: Ras-Raf binding inhibition ELISA. The settings on record: for IC50: anti-HRas antibody C-20, read-out: ELISA IC50 (μM): 1st Ab_C-20. The procedure, abridged:
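GST-c-Raf-1 RBD (aa 50-131) immobilized on glutathione plates, then GTPγS-loaded full-length HRasG12V added with compound (final 10% DMSO), 1 h at 30 °C, pH 7.4 Tris buffer. Bound Ras detected by anti-HRas antibody (C-20 or 259) and HRP secondary, TMB read at OD450; IC50 from inhibition.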
(In an ELISA, binding on a coated surface is turned into a signal by an enzyme label.)

Broadly, the inhibition is the change of the read-out against control, counted positive when it falls. One may read the IC50 as the concentration at which inhibition is half-maximal.

Chain of GTPγS-bound human HRasG12V / human c-Raf-1 Ras binding domain (RBD) (P01112 whole entry G12V, the tested form may be a part): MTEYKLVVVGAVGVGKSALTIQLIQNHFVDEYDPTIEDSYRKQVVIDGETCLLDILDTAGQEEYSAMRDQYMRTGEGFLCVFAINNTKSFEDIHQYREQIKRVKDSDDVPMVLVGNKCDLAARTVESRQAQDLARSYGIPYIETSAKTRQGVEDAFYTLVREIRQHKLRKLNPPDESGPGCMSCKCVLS

`COc1cc(/C=C2/C(=O)c3ccccc3N2C(C)=O)ccc1OS(C)(=O)=O` [Example 21, 4-((1-acetyl-3-oxoindolin-2-ylidene)methyl)-2-methoxyphenyl methanesulfonate]: in [1] (3.3 μM (*), read-out: MOLT-4 (NRasG12C) % inhibition at 3.3 μM (*)), the inhibition at 3.3 µM is 100%. In addition, the inhibition at 1 µM in [2] came out at 43%; in assay [3], 97%.

For `CC(=O)N1/C(=C/c2nc3cc(C(=O)N4CCOCC4)ccc3s2)C(=O)c2ccccc21` [Example 48, (E)-1-acetyl-2-((5-(morpholine-4-carbonyl)benzo [d]thiazol-2-yl)-methylene)indolin-3-one], the inhibition at 1 µM in [4] turned out to be 81%; in [5], 96%; in assay [3], 69%. Further, the inhibition at 10 µM in assay [2] worked out at 100%.

Take `CC(=O)N1/C(=C/c2nc3ccc(C(=O)N4CCOCC4)cc3s2)C(=O)c2ccccc21` [Example 58, (E)-1-acetyl-2-((6-(morpholine-4-carbonyl)benzo [d]thiazol-2-yl)-methylene)indolin-3-one]: the inhibition at 1 µM in [4] came to 72%; in assay [5], 100%; in assay [3] it was 45%. In addition, the inhibition at 10 µM in [2] amounted to 99%.

Consider `CC(=O)N1/C(=C/c2ncc(C(=O)N3CCOCC3)s2)C(=O)c2ccccc21` [Example 68, (E)-1-acetyl-2-((5-(morpholine-4-carbonyl)thiazol-2-yl)methylene)-indolin-3-one], for which the inhibition at 1 µM was 68% in assay [4], 93% in [5] and 37% in assay [2]. The inhibition at 3.3 µM in assay [6] is 67%; in assay [3] (3.3 μM (*), read-out: CCRF-CEM (KRasG12D) % inhibition at 3.3 μM(*)), 80%. Also, in assay [7], the inhibition at 10 µM was found to be 52%.

With `CCCCOc1cc(/C=C2/C(=O)c3ccccc3N2C(C)=O)nc2ccc(C(=O)N3CCOCC3)cc12` [Example 84, (Z)-1-acetyl-2-((4-butoxy-6-(morpholine-4-carbonyl)quinolin-2-yl)methylene)-indolin-3-one], the inhibition at 1 µM in assay [4] turned out to be 58%; in [8] (1 μM, read-out: SW620 (KRasG12V) % inhibition at 1 μM) it was 90%; in [5], 63%; in assay [2] it was 96%.

Regarding `CC(=O)N1/C(=C\c2cc(CN3CCOCC3)c3ccccc3n2)C(=O)c2ccccc21` [Example 181, (Z)-1-acetyl-2-((4-(morpholinometh-yl)quinolin-2-yl)-methylene)indolin-3-one], the inhibition at 3.2 µM in assay [1] was 96.3%; in assay [8] it was 74.3%; in [2], 96.7%; in [3], 98.2%. In addition, in assay [9], the IC50 was 2.4 µM.

With `CC(=O)N1/C(=C\c2cc(CNC3CCOCC3)c3ccccc3n2)C(=O)c2ccccc21` [Example 208, (Z)-1-acetyl-2-((4-(((tetrahydro-2H-pyran-4-yl)-amino)methyl)-quinolin-2-yl)-methylene)indolin-3-one], the inhibition at 3.2 µM in assay [1] was determined as 96.2%; in assay [8], 81.1%; in assay [2], 95.1%; in [3] it was 97%. In assay [9], this compound registered an inhibition at 1 µM of 46.7%. Moreover, the IC50 in assay [9] came out at 1.3 µM.

Turning to `CC(=O)N1CCc2cc(-c3cc(/C=C4/C(=O)c5ccccc5N4C(C)=O)nc4ccc(CNC5CCOCC5)cc34)ccc2C1` [Example 209, (Z)-1-acetyl-2-((4-(2-acetyl-1,2,3,4-tetrahydro-isoquinolin-6-yl)-6-(((tetrahydro-2H-pyran-4-yl)-amino)methyl)-quinolin-2-yl)-methylene)indolin-3-one], the inhibition at 3.2 µM was found to be 96.7% in assay [1], 94.4% in assay [8], 96.7% in assay [2] and 97.8% in [3]. Further, in [9], the inhibition at 1 µM turned out to be 71.2%.

Turning to `CC(=O)N1/C(=C\c2cc(-c3cccc(-c4cnn(C)c4)c3)c3cc(CNC4CCOCC4)ccc3n2)C(=O)c2ccccc21` [Example 210, (Z)-1-acetyl-2-((4-(3-(1-methyl-1H-pyrazol-4-yl)-phenyl)-6-(((tetra-hydro-2H-pyran-4-yl)amino)meth-yl)quinolin-2-yl)-methylene)indolin-3-one], the inhibition at 3.2 µM in assay [1] is 96.2%; in [8], 78%; in assay [2], 97.3%; in assay [3], 97.5%. The compound further yielded an inhibition at 1 µM in assay [9] of 66.9%. Moreover, in [9], the IC50 turned out to be 0.6 µM.
